According to paper PMC5581131, “The novel sphingosine-1-phosphate receptors antagonist AD2900 affects lymphocyte activation and inhibits T-cell entry into the lymph nodes” (Oncotarget, 2017):

What was measured:
S1P4 [1] = target: T1, S1P4 (Homo sapiens, UniProt O95977); assay: S1P4 agonist test, Tango S1P4 (EDG6)-bla U-2 OS cells; assay type: cell-based; conditions: S1P4 TANGO U-2 OS cell line
T1 construct: Tango fusion partner (protease site + GAL4-VP16 transcription factor); expressed in transfected cells; host or cells: Tango S1P4 (EDG6)-bla U-2 OS cells
T1 sequence (O95977 1-384): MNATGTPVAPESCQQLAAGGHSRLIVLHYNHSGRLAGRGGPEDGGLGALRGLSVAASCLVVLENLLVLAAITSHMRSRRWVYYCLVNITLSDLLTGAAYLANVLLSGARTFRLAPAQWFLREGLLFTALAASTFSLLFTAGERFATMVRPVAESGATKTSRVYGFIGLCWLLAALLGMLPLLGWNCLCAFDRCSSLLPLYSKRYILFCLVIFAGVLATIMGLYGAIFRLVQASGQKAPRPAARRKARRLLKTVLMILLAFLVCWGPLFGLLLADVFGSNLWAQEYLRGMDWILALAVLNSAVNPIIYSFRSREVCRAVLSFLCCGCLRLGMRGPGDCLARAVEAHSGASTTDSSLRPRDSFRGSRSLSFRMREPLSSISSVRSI
Protocol: (§1) Since AD2900 is a sphingolipid analogue with properties that resemble those of S1P, we intended to examine its ability to interact with the S1P receptors. To delineate whether AD2900 can function as an agonistic or antagonistic compound to any of the S1P receptors, we used a high-throughput screening cell-based assay, employing cell lines stably transfected with human S1P receptors 1, 2, 3, 4, or 5 [37]. In this experiment, a compound with an IC50 or EC50 value ≤10 μM for a certain S1P receptor is considered active as an antagonist or an agonist, respectively. The results illustrate that AD2900 acts as an antagonist to all S1P receptors (Table 1, Supplementary Figure 3). […] No agonist activation was evident.
(§2) The S1P1 agonist test and S1P2, S1P3, S1P4, and S1P5 agonist and antagonist tests were conducted as previously described using S1P1 CRE-bla CHO cells, S1P2 CRE-bla CHO cells, S1P3 NFAT-bla CHO cells, Tango™ S1P4 (EDG6)-bla U-2 OS cells, and Tango™ S1P5 ([…])-bla U-2 OS cells. The S1P1 antagonist assay was carried out according to the manufacturer’s instructions using a Tango™ S1P1 (EDG1)-bla U-2 OS Cell-Based Assay (Invitrogen, NY, USA).

murine splenocytes = assay: Mouse allogeneic MLR with murine splenocytes; assay type: cell-based; conditions: 1-day pretreatment, 3-day mice MLR; mean of up to, highest concentration
Protocol: Supplementary Figure 4: AD2900 inhibits mice splenocytes proliferation in allogeneic activation in vitro. In vivo- the […]
(A) The levels of proliferative response of mouse splenocytes after one day pretreatment with different concentrations of AD2900 were tested by mouse allogeneic mixed lymphocyte reaction (MLR) assay followed by a [3H] thymidine incorporation analysis. [3H] thymidine was incorporated for at least 16 hours at the 3rd day of the experiment. Significance is compared to untreated mice splenocytes. (B) C57BL/6 mice were orally administered AD2900 or FTY720. Leucocytes from blood, spleen and pLNs were collected and stained with TCR-β, CD62L and CD44 florescent antibodies and then analyzed by FACS analysis. The percent of CD62L+CD44+ (Tcm) like cells out of the total T cell population (TCR-β+) in blood, spleen and pLNs are shown. All the significances are compared to untreated healthy mice. Graphs summarize results of at least three independent experiments. Results of Student’s t test :*( P < 0.05, two-tailed test), ** (P < 0.01, two-tailed test), *** (P < 0.001, two-tailed test), **** (P < 0.0001, two-tailed test).
(also on this page, place not known: www.impactjournals.com/oncotarget/ Oncotarget, Materials 2017 Supplementary) […]

S1P2 = target: T2, S1P2 (Homo sapiens, UniProt O95136); assay: S1P2 antagonist test, S1P2 CRE-bla CHO cells; assay type: cell-based; conditions: S1P2 CRE-BLA CHO cell line
T2 construct: expressed in transfected cells; host or cells: S1P2 CRE-bla CHO cells
T2 sequence (O95136 whole entry): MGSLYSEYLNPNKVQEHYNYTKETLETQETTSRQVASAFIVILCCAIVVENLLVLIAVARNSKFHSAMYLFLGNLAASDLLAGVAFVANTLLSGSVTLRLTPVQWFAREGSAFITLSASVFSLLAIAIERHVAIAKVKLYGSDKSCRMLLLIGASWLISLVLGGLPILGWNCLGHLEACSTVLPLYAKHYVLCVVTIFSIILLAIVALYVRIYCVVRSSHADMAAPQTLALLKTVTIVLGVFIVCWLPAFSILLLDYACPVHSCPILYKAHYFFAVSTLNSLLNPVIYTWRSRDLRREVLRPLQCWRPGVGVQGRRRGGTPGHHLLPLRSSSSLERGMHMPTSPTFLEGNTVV
Protocol: as §1, §2

S1P5 = target: T3, S1P5 (Homo sapiens, UniProt Q9H228); assay: S1P5 agonist test, Tango S1P5-bla U-2 OS cells; assay type: cell-based; conditions: S1P5 TANGO U-2 OS cell line
T3 construct: Tango fusion partner (protease site + GAL4-VP16 transcription factor); expressed in transfected cells; host or cells: Tango S1P5-bla U-2 OS cells
T3 sequence (Q9H228 whole entry, the tested form may be a part): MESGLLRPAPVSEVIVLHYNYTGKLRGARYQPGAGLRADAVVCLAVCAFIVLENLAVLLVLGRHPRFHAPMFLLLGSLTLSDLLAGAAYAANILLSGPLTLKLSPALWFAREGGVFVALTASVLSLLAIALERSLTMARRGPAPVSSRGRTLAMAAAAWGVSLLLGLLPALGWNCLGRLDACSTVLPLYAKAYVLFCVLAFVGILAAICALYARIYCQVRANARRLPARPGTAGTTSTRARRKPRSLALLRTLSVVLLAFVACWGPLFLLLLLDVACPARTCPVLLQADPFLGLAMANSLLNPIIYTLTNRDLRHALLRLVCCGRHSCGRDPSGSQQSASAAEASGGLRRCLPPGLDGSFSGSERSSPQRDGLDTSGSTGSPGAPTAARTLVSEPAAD
Protocol: as §1, §2

S1P4 [2] = target: T1, S1P4; assay: S1P4 antagonist test, Tango S1P4 (EDG6)-bla U-2 OS cells; assay type: cell-based; conditions: S1P4 TANGO U-2 OS cell line
Protocol: as §1, §2

[3] = set-up: method as in unpublished data; conditions: previous studies; ref unpublished data; cited from earlier work

CCCCCCCCCCCCCCCCNC(CO)(CO)CO [AD2900]
EC50 (S1P4 [1]): > 50 µM
inhibition of mice T-cell proliferation (murine splenocytes): 73% ± 3%
IC50 (S1P2): 3.2 µM
EC50 (S1P5): > 50 µM
IC50 (S1P4 [2]): 5.9 µM
stable at room temperature [3]: at least 2 years
